Results on two compounds are retold here after patent publication EP0615158A1, “A silver halide photographic light-sensitive material” (KONICA CORPORATION, priority 1993, dated 1994).

For the series the following is noted: method of Shin Jikken Kagaku Koza, Kihon Sosa 1.

`C=Cc1ccccc1` [styrene]: the “solubility in water at 25°C” value came to 0.03 % by weight.

Consider `C=C(C)C(=O)OCCCC` [butyl methacrylate], for which the “solubility in water at 25°C” value was found to be 0.03 % by weight.
